# Laboratory results reported in the supplement of paper PMC8497498.
# Tests used:
# [1] = system: Plasmodium cynomolgi Berok K4 asexual blood stage; assay: EC50 asexual blood stage growth
# Protocol: (§1)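 The Reference Compound Library was tested by 10-point 3-fold dose response against P. cynomolgi Berok K4 asexual blood stages (SYBR proliferation assay, mefloquine background control). Culture medium contained 0.5% AlbuMAX or 20% M. fascicularis serum. P. falciparum 3D7 was tested in a 72-h SYBR Green assay with 0.5% AlbuMAX. Values are geometric mean EC50 over independent experiments; 10 uM is the top dose.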
# [2] = system: Plasmodium falciparum 3D7 asexual blood stage; assay: EC50 asexual blood stage growth; conditions: serum: 0.5% AlbuMAX
# Protocol: as §1
# [3] = serum: 20% M. fascicularis serum
Structure (SMILES),EC50 asexual blood stage growth ([1]; serum: 0.5% AlbuMAX),"EC50 asexual blood stage growth [1, 3]",EC50 asexual blood stage growth [2]
CCCCN(CCCC)CC(O)c1cc(Cl)cc2c1-c1ccc(Cl)cc1C2=Cc1ccc(Cl)cc1 (stereo unspecified) [Lumefantrine],23.3 nM,105 nM,30.5 nM
C=CC1CN2CCC1CC2C(O)c1ccnc2ccc(OC)cc12 (stereo unspecified) [Quinidine],30.8 nM,18.5 nM,73.9 nM
CC(C)(C)NCc1cc(Nc2ccnc3cc(Cl)ccc23)c2c(c1O)CCCC2 [Naphthoquine],23.2 nM,68.3 nM,8.7 nM
CC1CCC2C(C)C(O)OC3OC4(C)CCC1C32O4 (stereo unspecified) [Deoxydihydroartemisinin],> 10000 nM,> 10000 nM,> 10000 nM
CCc1nc(N)nc(N)c1-c1ccc(Cl)cc1 [Pyrimethamine],21.8 nM,7.2 nM,36.6 nM
CCN(CCO)CCCC(C)Nc1ccnc2cc(Cl)ccc12 (stereo unspecified) [Hydroxychloroquine],3370 nM,209 nM,427 nM
CC1(C)c2nc(-c3ccc(F)cc3)c(Nc3ccc(F)cc3)n2CCN1C(=O)CN [KAF-156],3.6 nM,36.6 nM,24.4 nM
CC(=O)N[C@@H](C(=O)O)C(C)(C)S [N-acetyl-D-penicillamine],7560 nM,> 10000 nM,> 10000 nM
N=C(N)c1ccc(OCCCCCOc2ccc(C(=N)N)cc2)cc1 [Pentamidine],212 nM,389 nM,139 nM
CC1CCCC(CC2Cc3cc(O)cc(O)c3C(=O)O2)O1 (stereo unspecified) [Cladosporin],124 nM,1430 nM,75.8 nM
CC1CCC2C(C)C(=O)OC3OC4(C)CCC1C32OO4 (stereo unspecified) [Artemisinin],7.3 nM,9.4 nM,94.8 nM
CC1CCC2C(C)C(N3CCS(=O)(=O)CC3)OC3OC4(C)CCC1C32OO4 (stereo unspecified) [Artemisone],1 nM,0.6 nM,5 nM
CS(=O)(=O)c1ccc(-c2cnc(N)c(-c3ccc(C(F)(F)F)nc3)c2)cc1 [MMV048],59.8 nM,49 nM,127 nM
Nc1ccc(S(=O)(=O)c2ccc(N)cc2)cc1 [Dapsone],> 10000 nM,> 10000 nM,> 10000 nM
CONC(=N)c1ccc(-c2ccc(-c3ccc(C(=N)NOC)cc3)o2)cc1 [Pafuramidine],> 10000 nM,> 10000 nM,> 10000 nM
CC12CCC3C(CC=C4CC(OS(=O)(=O)O)CCC43C)C1CCC2=O (stereo unspecified) [Dehydroepiandrosterone sulphate],> 10000 nM,> 10000 nM,> 10000 nM
CN(C)c1ccc2nc3ccc(=[N+](C)C)cc-3sc2c1 [Methylene blue],5.4 nM,6 nM,17.8 nM
CCC[C@@H]1C[C@@H](C(=O)N[C@@H]([C@H]2O[C@H](SC)[C@H](O)[C@@H](O)[C@H]2O)[C@H](C)Cl)N(C)C1 [Clindamycin],> 10000 nM,9210 nM,> 10000 nM
Cc1cc2nc3c(=O)[nH]c(=O)nc-3n(CC(O)C(O)C(O)CO)c2cc1C (stereo unspecified) [Riboflavin],> 10000 nM,> 10000 nM,> 10000 nM
COc1cc(C)c2c(Oc3cccc(C(F)(F)F)c3)c(OC)cc(NC(C)CCCN)c2n1 (stereo unspecified) [Tafenoquine],5290 nM,> 10000 nM,5940 nM
CC(C)(C)NCc1cc(C(C)(C)C)cc(-c2ccc(Cl)cc2)c1O,2 nM,6.8 nM,14.1 nM
N=C(N)c1ccc(-c2ccc(-c3ccc(C(=N)N)cc3)o2)cc1 [Furamidine],4670 nM,864 nM,540 nM
CC(=O)N(O)CCCCCNC(=O)CCC(=O)N(O)CCCCCNC(=O)CCC(=O)N(O)CCCCCN [Deferoxamine],> 10000 nM,> 10000 nM,> 10000 nM
CC1CC(C)C(=O)C(C(O)CC2CC(=O)NC(=O)C2)C1 (stereo unspecified) [Cyclohexamide],35.2 nM,40.1 nM,282 nM

Structure (SMILES),EC50 asexual blood stage growth ([1]; serum: 0.5% AlbuMAX),"EC50 asexual blood stage growth [1, 3]",EC50 asexual blood stage growth [2]
CC(C)(C)NCc1cc(Nc2ccnc3cc(Cl)ccc23)ccc1F,77.4 nM,38.8 nM,9.8 nM
CC1Cc2c([nH]c3cc(Cl)c(F)cc23)C2(N1)C(=O)Nc1ccc(Cl)cc12 (stereo unspecified) [Cipargamin],3.3 nM,15.4 nM,1.4 nM
COc1cc(NC(C)CCCN)c2ncccc2c1 (stereo unspecified) [Primaquine],3100 nM,9000 nM,5750 nM
Cc1c(Oc2cnc(C(=O)N3CC(C)(O)C3)cn2)ccc2c1B(O)OC2 [AN762],1750 nM,2200 nM,101 nM
Clc1ccc2c(N3CCN(CCCN4CCN(c5ccnc6cc(Cl)ccc56)CC4)CC3)ccnc2c1 [Piperaquine],68.2 nM,35.3 nM,299 nM
O=C1C(O)=C([C@H]2CC[C@H](c3ccc(Cl)cc3)CC2)C(=O)c2ccccc21 [Atovaquone],1 nM,1.7 nM,0.9 nM
CN(C)CC1=C(CNc2ccnc3cc(Cl)ccc23)C=[C-]C1.[C-]1=CC=CC1.[Fe+2] [Ferroquine],43.3 nM,36.2 nM,11.5 nM
CC1CCC2C(C)C(O)OC3OC4(C)CCC1C32OO4 (stereo unspecified) [Artenimol],0.6 nM,0.5 nM,6.5 nM
CC(C)N=C(N)N=C(N)Nc1ccc(Cl)cc1 [Proguanil],> 10000 nM,> 10000 nM,2740 nM
CCCCN(CCCC)CCC(O)c1cc2c(Cl)cc(Cl)cc2c2cc(C(F)(F)F)ccc12 (stereo unspecified) [Halofantrine],0.5 nM,0.5 nM,3.7 nM
Cc1nn(C)c(NC(=O)Cn2c(C(C)C)nc3ccccc32)c1-c1ccc(Cl)cc1F [21A092],7 nM,79.4 nM,14.8 nM
Cc1c(CCO)sc[n+]1CCCCCCCCCCCC[n+]1csc(CCO)c1C [Albitiazolium],367 nM,144 nM,14.4 nM
CCN(CC)CCCC(C)Nc1ccnc2cc(Cl)ccc12 (stereo unspecified) [Chloroquine],183 nM,32.8 nM,82.2 nM
CN(Cc1cnc2nc(N)nc(N)c2n1)c1ccc(C(=O)N[C@@H](CCC(=O)O)C(=O)O)cc1 [Methotrexate],232 nM,168 nM,138 nM
CCN(CC)CCCCCCNc1cc(OC)cc2c(C)ccnc12 [Sitamaquine],773 nM,1050 nM,730 nM
c1cc(C2CCC3(CC2)OOC2(O3)C3CC4CC(C3)CC2C4)ccc1OCCN1CCOCC1 (stereo unspecified) [Artefenomel],3.4 nM,2.3 nM,42.4 nM
O=CN(O)CCCP(=O)(O)O [Fosmidomycin],> 10000 nM,6690 nM,> 10000 nM
CC(C)(C)c1cc(O)c(CN)c(C(C)(C)C)c1.Cl [MK-4815],49.4 nM,93.8 nM,574 nM
COc1cc(Cc2cnc(N)nc2N)cc(OC)c1OC [Trimethoprim],794 nM,496 nM,5280 nM
CC(C)(N)CNC(=O)CC1CCC2(CC1)OOC1(O2)C2CC3CC(C2)CC1C3 (stereo unspecified) [Arterolane],1.4 nM,1 nM,7.8 nM
Cc1cc(Nc2ccc(C(F)(F)F)nc2)n2nc(C(C)(F)F)nc2n1 [DSM421],60.5 nM,59.5 nM,35.1 nM
Nc1ccc(S(=O)(=O)Nc2ncccn2)cc1 [Sulfadiazine],> 10000 nM,8320 nM,> 10000 nM
C=C[C@H]1C[N@@]2CC[C@H]1C[C@H]2[C@H](O)c1ccnc2ccc(OC)cc12 [Quinine],127 nM,174 nM,184 nM
